Source: publication PMC7029851, “Antibacterial activity of novel dual bacterial DNA type II topoisomerase inhibitors” (PLoS ONE, 2020)
“And” between values parts separate entries of the source, which are not always exact repeats. Equal values may be shown once. Where a name gives a salt, the structure may show the parent alone. Read-outs that look alike come from different tables or passages of the source.

Columns and labels:
[1] = system: E. faecalis clinical isolates (n = 12) vanA (6)/vanB (6); experiment: MIC, multidrug-resistant clinical isolates; format: cell-based; settings: Enterococcus faecalis; for MIC: read-out: MIC range
Procedure: (§1) The bacterial reference strains used in this study were purchased from ATCC (American Type Culture Collection) via LGC Standards (Middlesex, UK). […] Clinical MDR isolates were provided by Aptuit, the IHMA Europa Sàrl repository (Epalinges, Switzerland) and the Statens Serum Institute (Copenhagen, Denmark).
(§2) MICs were determined by the broth microdilution method (the agar dilution method was used only for N. gonorrhoeae) according to CLSI guidelines.
(§3) The results obtained using clinical isolates are reported as MIC50 and MIC90 values.

[2] = system: E. faecium clinical isolates (n = 12) vanA (6)/vanB (6); experiment: MIC, multidrug-resistant clinical isolates; format: cell-based; settings: Enterococcus faecium; for MIC: read-out: MIC range
Procedure: as §1, §2, §3

E. coli Topoisomerase IV = target: T1, E. coli Topoisomerase IV (Escherichia coli, UniProt P0AFI2); experiment: E. coli topoisomerase IV decatenation gel assay; format: biochemical
T1 construct: purchased Inspiralis (Norwich, UK)
T1 sequence (P20083 whole entry): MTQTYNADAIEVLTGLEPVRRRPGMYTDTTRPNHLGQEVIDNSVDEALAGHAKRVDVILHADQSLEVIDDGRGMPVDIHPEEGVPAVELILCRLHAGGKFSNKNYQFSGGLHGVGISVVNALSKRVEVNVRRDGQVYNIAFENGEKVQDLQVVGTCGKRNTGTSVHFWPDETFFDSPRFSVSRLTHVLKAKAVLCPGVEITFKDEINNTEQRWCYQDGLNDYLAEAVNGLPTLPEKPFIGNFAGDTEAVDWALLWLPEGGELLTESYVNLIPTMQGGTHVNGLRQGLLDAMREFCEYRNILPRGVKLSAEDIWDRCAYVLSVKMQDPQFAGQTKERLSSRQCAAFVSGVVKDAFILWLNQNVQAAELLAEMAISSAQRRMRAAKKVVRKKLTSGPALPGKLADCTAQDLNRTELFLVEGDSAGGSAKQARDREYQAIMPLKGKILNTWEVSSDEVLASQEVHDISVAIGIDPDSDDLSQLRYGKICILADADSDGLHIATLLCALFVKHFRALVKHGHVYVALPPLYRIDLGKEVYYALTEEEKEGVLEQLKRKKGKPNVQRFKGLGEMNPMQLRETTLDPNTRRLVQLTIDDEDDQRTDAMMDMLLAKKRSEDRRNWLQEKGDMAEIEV
T1 sequence (P0AFI2 whole entry): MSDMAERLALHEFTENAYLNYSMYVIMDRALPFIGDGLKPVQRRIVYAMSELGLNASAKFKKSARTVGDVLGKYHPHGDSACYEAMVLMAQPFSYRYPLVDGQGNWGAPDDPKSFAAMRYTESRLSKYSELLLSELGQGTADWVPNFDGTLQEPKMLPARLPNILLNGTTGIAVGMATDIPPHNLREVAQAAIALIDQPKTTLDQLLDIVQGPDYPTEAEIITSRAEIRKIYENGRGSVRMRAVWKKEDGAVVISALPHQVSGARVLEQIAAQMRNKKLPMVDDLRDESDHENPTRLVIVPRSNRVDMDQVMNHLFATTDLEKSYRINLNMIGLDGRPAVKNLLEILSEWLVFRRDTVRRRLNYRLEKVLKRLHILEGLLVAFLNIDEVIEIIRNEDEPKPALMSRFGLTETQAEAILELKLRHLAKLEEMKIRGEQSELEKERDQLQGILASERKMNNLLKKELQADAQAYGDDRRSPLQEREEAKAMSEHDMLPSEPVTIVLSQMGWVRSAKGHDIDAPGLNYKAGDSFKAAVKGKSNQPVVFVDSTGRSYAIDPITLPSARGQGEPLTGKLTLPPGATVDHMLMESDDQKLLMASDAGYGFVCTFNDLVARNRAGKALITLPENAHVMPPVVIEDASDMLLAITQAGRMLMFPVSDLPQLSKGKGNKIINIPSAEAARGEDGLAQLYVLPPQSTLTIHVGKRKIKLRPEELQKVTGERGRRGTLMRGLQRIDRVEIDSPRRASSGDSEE
Procedure: (§4) S. aureus and E. coli DNA gyrase supercoiling and topo IV decatenation assay kits, as well as human topoisomerase II decatenation assay kits, were provided by Inspiralis (Norwich, UK). Assays were performed according to the manufacturer’s instructions. The compounds were serially diluted (1:3 dilutions starting from a 300 μM final concentration) and assayed in a reaction mixture to obtain concentration-response curves in two different replicate experiments. The final concentration of DMSO in the assays was 1% (v/v). The reactions were terminated by the addition of 30 μl chloroform/isoamyl alcohol (26:1) and 30 μl Stop Dye (40% sucrose, 100 mM Tris HCl pH 7.5, 1 mM EDTA, 0.5 μg/ml bromophenol blue), after which the samples were loaded onto a 1.0% TAE ([…]) gel that was then run at 80 V for 2 hours. DNA bands were visualized by ethidium bromide staining the gel for 10 minutes, which was then destained for 10 minutes in water and analysed using gel documentation equipment (Syngene, Cambridge, UK). The DNA in each band was quantitated using Syngene Gene Tools software. Raw gel data (fluorescent band volumes) were converted by the software to percentages of the control (the fully supercoiled or decatenated DNA band). […] The global curve fit non-linear regression tool was used to calculate the IC50 values. The results are expressed as the average values obtained after calculating the IC50 from each replicate run.

[3] = system: N. gonorrhoeae ATCC 19424; experiment: MIC, agar dilution; format: cell-based; settings: Neisseria gonorrhoeae, ATCC19424; N. gonorrhoeae ATCC 19424, ciprofloxacin-susceptible
Procedure: as §2

N. gonorrhoeae WHO K = experiment: MIC, agar dilution; format: cell-based; settings: Neisseria gonorrhoeae, ciprofloxacin-resistant
Procedure: as §2

N. gonorrhoeae WHO N = experiment: MIC, agar dilution; format: cell-based; settings: Neisseria gonorrhoeae, ciprofloxacin-resistant
Procedure: as §2

N. gonorrhoeae WHO L = experiment: MIC, agar dilution; format: cell-based; settings: Neisseria gonorrhoeae, ciprofloxacin-resistant
Procedure: as §2

[4] = system: N. gonorrhoeae ATCC 49226; experiment: MIC, agar dilution; format: cell-based; settings: Neisseria gonorrhoeae, ATCC49226; N. gonorrhoeae ATCC 49226, ciprofloxacin-susceptible
Procedure: as §2

S. aureus ATCC 29213 = experiment: MIC, broth microdilution; format: cell-based, Staphylococcus aureus; settings: Staphylococcus aureus, ATCC29213, S. aureus ATCC 29213, ciprofloxacin-susceptible
Procedure: as §2

[5] = system: N. gonorrhoeae clinical isolates (n = 38); experiment: microbe, parasite or virus in culture; format: cell-based, Neisseria gonorrhoeae; settings: for MIC50 / MIC90: Neisseria gonorrhoeae
Procedure: as §1, §2, §3

E. coli DNA gyrase = target: T2, E. coli DNA gyrase (Escherichia coli, UniProt P0AES4); experiment: E. coli DNA gyrase supercoiling gel assay; format: biochemical
T2 construct: purchased Inspiralis (Norwich, UK)
T2 sequence (P0AES4 whole entry): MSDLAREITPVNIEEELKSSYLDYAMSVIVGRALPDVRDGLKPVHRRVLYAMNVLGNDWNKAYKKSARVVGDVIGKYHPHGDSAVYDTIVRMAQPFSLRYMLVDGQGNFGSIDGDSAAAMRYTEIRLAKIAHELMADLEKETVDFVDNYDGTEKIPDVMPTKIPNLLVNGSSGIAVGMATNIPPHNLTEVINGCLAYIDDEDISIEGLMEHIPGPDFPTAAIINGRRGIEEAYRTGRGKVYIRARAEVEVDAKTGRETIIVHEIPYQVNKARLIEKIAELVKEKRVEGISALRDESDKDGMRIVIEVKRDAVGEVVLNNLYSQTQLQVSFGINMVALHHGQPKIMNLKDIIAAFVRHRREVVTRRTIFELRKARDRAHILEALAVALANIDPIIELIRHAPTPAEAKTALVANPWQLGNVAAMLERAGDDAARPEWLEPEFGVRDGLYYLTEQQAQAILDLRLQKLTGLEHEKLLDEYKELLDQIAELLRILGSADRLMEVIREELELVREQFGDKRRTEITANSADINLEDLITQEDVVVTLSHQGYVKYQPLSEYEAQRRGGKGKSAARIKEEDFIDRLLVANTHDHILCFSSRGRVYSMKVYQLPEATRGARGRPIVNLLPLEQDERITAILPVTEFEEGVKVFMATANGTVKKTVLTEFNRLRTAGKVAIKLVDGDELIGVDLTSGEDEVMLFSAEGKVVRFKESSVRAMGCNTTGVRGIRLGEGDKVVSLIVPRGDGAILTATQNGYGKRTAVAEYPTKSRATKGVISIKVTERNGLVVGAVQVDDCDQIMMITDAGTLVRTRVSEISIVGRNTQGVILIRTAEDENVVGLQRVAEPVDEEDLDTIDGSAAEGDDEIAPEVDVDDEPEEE
Procedure: as §4

S. aureus DNA gyrase = target: T3, S. aureus DNA gyrase (Staphylococcus aureus, UniProt P20831); experiment: S. aureus DNA gyrase supercoiling gel assay; format: biochemical
T3 construct: purchased Inspiralis (Norwich, UK)
Procedure: as §4

S. aureus BAA-1720 = experiment: MIC, broth microdilution; format: cell-based; settings: Staphylococcus aureus, BAA1720; S. aureus BAA-1720, ciprofloxacin-resistant
Procedure: as §2

E. faecalis ATCC 29212 = experiment: MIC, broth microdilution; format: cell-based; settings: Enterococcus faecalis, ATCC29212; E. faecalis ATCC 29212, ciprofloxacin-susceptible
Procedure: as §2

S. pneumoniae ATCC 49619 = experiment: MIC, broth microdilution; format: cell-based; settings: Streptococcus pneumoniae, ATCC49619; S. pneumoniae ATCC 49619, ciprofloxacin-susceptible
Procedure: as §2

P. aeruginosa ATCC 27853 = experiment: MIC, broth microdilution; format: cell-based; settings: Pseudomonas aeruginosa, ATCC27853; P. aeruginosa ATCC 27853, ciprofloxacin-susceptible
Procedure: as §2

H. influenzae ATCC 49766 = experiment: MIC, broth microdilution; format: cell-based; settings: Haemophilus influenzae, ATCC49766; H. influenzae ATCC 49766, ciprofloxacin-susceptible
Procedure: as §2

[6] = system: K. pneumoniae ATCC 700603; experiment: MIC, broth microdilution; format: cell-based; settings: Klebsiella pneumoniae, ATCC700603; K. pneumoniae ATCC 700603, ciprofloxacin-susceptible
Procedure: as §2

E. coli ATCC 25922 = experiment: MIC, broth microdilution; format: cell-based; settings: Escherichia coli, ATCC25922; E. coli ATCC 25922, ciprofloxacin-susceptible
Procedure: as §2

E. coli TolC- mutant = experiment: microbe, parasite or virus in culture; format: cell-based; settings: Escherichia coli
Procedure: as §1, §2

Human Topoisomerase II = target: T4, Human Topoisomerase II (Homo sapiens, UniProt P11388); experiment: Human topoisomerase II decatenation gel assay; format: biochemical
T4 construct: purchased Inspiralis (Norwich, UK)
T4 sequence (P11388 whole entry): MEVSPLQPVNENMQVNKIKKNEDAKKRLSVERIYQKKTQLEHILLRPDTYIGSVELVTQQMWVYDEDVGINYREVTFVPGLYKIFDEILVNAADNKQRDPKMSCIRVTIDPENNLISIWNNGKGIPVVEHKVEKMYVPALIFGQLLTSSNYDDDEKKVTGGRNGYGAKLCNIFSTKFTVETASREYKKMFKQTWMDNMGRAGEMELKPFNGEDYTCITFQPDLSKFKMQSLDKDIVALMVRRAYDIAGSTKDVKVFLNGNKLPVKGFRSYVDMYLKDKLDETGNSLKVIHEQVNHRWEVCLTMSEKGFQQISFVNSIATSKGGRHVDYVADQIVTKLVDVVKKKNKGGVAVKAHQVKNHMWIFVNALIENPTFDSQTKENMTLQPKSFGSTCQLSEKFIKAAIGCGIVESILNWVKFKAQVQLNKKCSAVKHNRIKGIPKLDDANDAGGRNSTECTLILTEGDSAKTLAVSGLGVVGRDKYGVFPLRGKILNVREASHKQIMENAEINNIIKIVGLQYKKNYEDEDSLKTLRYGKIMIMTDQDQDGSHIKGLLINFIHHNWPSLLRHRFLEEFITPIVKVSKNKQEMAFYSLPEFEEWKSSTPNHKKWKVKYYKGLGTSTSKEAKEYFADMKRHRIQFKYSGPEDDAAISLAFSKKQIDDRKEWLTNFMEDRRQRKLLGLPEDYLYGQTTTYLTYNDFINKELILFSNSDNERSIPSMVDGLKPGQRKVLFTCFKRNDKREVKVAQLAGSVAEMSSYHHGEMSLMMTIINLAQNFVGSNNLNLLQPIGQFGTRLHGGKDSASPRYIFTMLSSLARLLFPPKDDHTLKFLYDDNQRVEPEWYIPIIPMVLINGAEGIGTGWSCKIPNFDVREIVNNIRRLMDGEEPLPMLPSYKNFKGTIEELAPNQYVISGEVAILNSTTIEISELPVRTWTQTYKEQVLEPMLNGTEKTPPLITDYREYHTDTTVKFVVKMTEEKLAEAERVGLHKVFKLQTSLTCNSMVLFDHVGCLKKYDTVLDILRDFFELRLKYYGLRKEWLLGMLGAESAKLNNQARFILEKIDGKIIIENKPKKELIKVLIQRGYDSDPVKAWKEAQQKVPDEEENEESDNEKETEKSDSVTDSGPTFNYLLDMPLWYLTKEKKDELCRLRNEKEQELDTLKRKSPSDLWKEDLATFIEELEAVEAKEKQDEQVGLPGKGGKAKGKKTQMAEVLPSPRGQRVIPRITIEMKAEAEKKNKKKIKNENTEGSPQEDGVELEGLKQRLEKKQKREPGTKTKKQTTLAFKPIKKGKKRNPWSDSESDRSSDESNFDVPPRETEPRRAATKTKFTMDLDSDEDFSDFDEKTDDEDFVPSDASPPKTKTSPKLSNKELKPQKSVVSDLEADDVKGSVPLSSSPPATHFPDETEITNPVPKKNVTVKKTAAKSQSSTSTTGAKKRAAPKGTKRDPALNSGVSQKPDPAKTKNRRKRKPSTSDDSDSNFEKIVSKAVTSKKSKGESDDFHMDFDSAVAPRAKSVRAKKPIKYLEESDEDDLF
Procedure: as §4

[7] = target: T5, S. aureus Topoisomerase IV (Staphylococcus aureus, UniProt P0C1U9); experiment: S. aureus topoisomerase IV decatenation gel assay; format: biochemical
T5 construct: purchased Inspiralis (Norwich, UK)
Procedure: as §4

[8] = average of two replicate experiments, read-out: IC50 E. coli Topoisomerase IV decatenation (average)
[9] = replicate Assay 1, read-out: IC50 E. coli Topoisomerase IV decatenation, Assay 1
[10] = replicate Assay 2, read-out: IC50 E. coli Topoisomerase IV decatenation, Assay 2
[11] = average of two replicate experiments, read-out: IC50 E. coli Gyrase Supercoiling (average)
[12] = replicate Assay 1, read-out: IC50 E. coli gyrase Supercoiling, Assay 1
[13] = replicate Assay 2, read-out: IC50 E. coli gyrase Supercoiling, Assay 2
[14] = average of two replicate experiments, read-out: IC50 S. aureus Gyrase Supercoiling (average)
[15] = replicate Assay 1, read-out: IC50 S.aureus gyrase Supercoiling, Assay 1
[16] = replicate Assay 2, read-out: IC50 S.aureus gyrase Supercoiling, Assay 2
[17] = average of two replicate experiments, read-out: IC50 Human Topoisomerase II decatenation (average)
[18] = replicate Assay 1, read-out: IC50 Human Topoisomerase II (TopoII) decatenation, Assay 1
[19] = replicate Assay 2, read-out: IC50 Human Topoisomerase II (TopoII) decatenation, Assay 2
[20] = replicate Assay 1, read-out: IC50 S. aureus Topoisomerase IV decatenation, Assay 1
[21] = replicate Assay 2, read-out: IC50 S. aureus Topoisomerase IV decatenation, Assay 2

In the case of `O=c1oc2ccc(F)cc2c2[nH]c(CN[C@H]3CC[C@H](n4c(=O)cnc5ncc(F)cc54)CC3)cc12` [Compound 4, 8-fluoro-2-({[trans-4-(7-fluoro-2-oxopyrido[2,3-b]pyrazin-1(2H)-yl)cyclohexyl]amino}methyl)[1]benzopyrano[4,3-b]pyrrol-4(1H)-one (formate salt)], the MIC50 [1] is reported as 0.25 µg/mL, the MIC90 [1] is reported as 0.5 µg/mL and the MIC [1] is reported as 0.12 to 1 µg/mL. It also gave an MIC50 [2] of 1 µg/mL, an MIC90 [2] of 1 µg/mL and an MIC [2] of 0.25 to 8 µg/mL. It also gave an IC50 (E. coli Topoisomerase IV; [8]) of 300 nM, an IC50 (E. coli Topoisomerase IV; [9]) of 500 nM and an IC50 (E. coli Topoisomerase IV; [10]) of 200 nM. The MIC [3] was at most 0.06 µg/mL, the MIC (N. gonorrhoeae WHO K) was 0.12 µg/mL and the MIC (N. gonorrhoeae WHO N) was 0.06 µg/mL. For the same compound, the MIC (N. gonorrhoeae WHO L) was 0.12 µg/mL, the MIC [4] was 0.06 µg/mL and the MIC (S. aureus ATCC 29213) was 0.25 µg/mL. The MIC range [5] was 0.004 to 0.12 µg/mL, the MIC50 [5] was 0.06 µg/mL and the MIC90 [5] was 0.12 µg/mL. The IC50 (E. coli DNA gyrase; [11]) was 130 nM, the IC50 (E. coli DNA gyrase; [12]) was 150 nM and the IC50 (E. coli DNA gyrase; [13]) was 120 nM. For the same compound, the IC50 (S. aureus DNA gyrase; [14]) was 1000 nM, the IC50 (S. aureus DNA gyrase; [15]) was 800 nM and the IC50 (S. aureus DNA gyrase; [16]) was 1200 nM. The MIC (S. aureus BAA-1720) was 0.5 µg/mL, the MIC (E. faecalis ATCC 29212) was 0.5 µg/mL and the MIC (S. pneumoniae ATCC 49619) was 0.25 µg/mL. It also gave an MIC (P. aeruginosa ATCC 27853) of 2 µg/mL, an MIC (H. influenzae ATCC 49766) of 0.12 µg/mL and an MIC [6] of 4 µg/mL. The MIC (E. coli ATCC 25922) was 0.5 µg/mL, the MIC (E. coli TolC- mutant) was at most 0.016 µg/mL and the IC50 (Human Topoisomerase II; [17]) was over 300000 nM. The IC50 (Human Topoisomerase II; [18]) was over 300000 nM, the IC50 (Human Topoisomerase II; [19]) was over 300000 nM and the IC50 [7] was 220 nM. It also gave an IC50 [7, 20] of 260 nM and an IC50 [7, 21] of 170 nM.

With `COc1cnc2ncc(=O)n([C@H]3CC[C@H](NCc4cc5c(=O)oc6ccc(F)cc6c5[nH]4)CC3)c2c1` [Compound 5, 8-Fluoro-2-({[trans-4-(7-methoxy-2-oxopyrido[2,3-b]pyrazin-1(2H)-yl)cyclohexyl]amino}methyl)[1]benzopyrano[4,3-b]pyrrol-4(1H)-one hydrochloride] the MIC50 [1] was 0.5 µg/mL, the MIC90 [1] was 2 µg/mL and the MIC [1] was 0.25 to 4 µg/mL. For the same compound, the MIC50 [2] was 1 µg/mL, the MIC90 [2] was 4 µg/mL and the MIC [2] was 0.25 to 8 µg/mL. It also gave an IC50 (E. coli Topoisomerase IV; [8]) of 140 nM, an IC50 (E. coli Topoisomerase IV; [9]) of 120 nM and an IC50 (E. coli Topoisomerase IV; [10]) of 160 nM. It also gave an MIC [3] of at most 0.06 µg/mL, an MIC (N. gonorrhoeae WHO K) of 0.25 µg/mL and an MIC (N. gonorrhoeae WHO N) of 0.12 µg/mL. For the same compound, the MIC (N. gonorrhoeae WHO L) was 0.25 µg/mL, the MIC [4] was 0.125 µg/mL and the MIC (S. aureus ATCC 29213) was 0.5 µg/mL. The MIC range [5] was 0.016 to 0.25 µg/mL, the MIC50 [5] was 0.12 µg/mL and the MIC90 [5] was 0.25 µg/mL. For the same compound, the IC50 (E. coli DNA gyrase; [11]) was 100 nM, the IC50 (E. coli DNA gyrase; [12]) was 90 nM and the IC50 (E. coli DNA gyrase; [13]) was 100 nM. For the same compound, the IC50 (S. aureus DNA gyrase; [14]) was 170 nM, the IC50 (S. aureus DNA gyrase; [15]) was 160 nM and the IC50 (S. aureus DNA gyrase; [16]) was 170 nM. It also gave an MIC (S. aureus BAA-1720) of 1 µg/mL, an MIC (E. faecalis ATCC 29212) of 0.25 µg/mL and an MIC (S. pneumoniae ATCC 49619) of 0.5 µg/mL. It also gave an MIC (P. aeruginosa ATCC 27853) of 4 µg/mL, an MIC (H. influenzae ATCC 49766) of 0.12 µg/mL and an MIC [6] of 8 µg/mL. For the same compound, the MIC (E. coli ATCC 25922) was 0.5 µg/mL, the MIC (E. coli TolC- mutant) was at most 0.016 µg/mL and the IC50 (Human Topoisomerase II; [17]) was 9120 nM and 9000 nM. The IC50 (Human Topoisomerase II; [18]) was 5450 nM, the IC50 (Human Topoisomerase II; [19]) was 12800 nM and the IC50 ([7]; average of two replicate experiments, read-out: IC50 S. aureus Topoisomerase IV decatenation (average)) was 70 nM. It also gave an IC50 [7, 20] of 80 nM and an IC50 [7, 21] of 60 nM.
